Experimental data from patent US10774084B2, “Adenine derivatives and their use as UV-photoprotective agents” (UNIVERZITA PALACKEHO V OLOMOUCI, priority 2015, dated 2020).

Assays:
GSH depletion = assay: UVA-induced GSH depletion in NHDF (DTNB); type: cell-based, human
Source text: (§1) Normal human dermal fibroblasts (NHDF) were used as an in vitro model. Cells were isolated from tissue specimens obtained from healthy patients undergoing plastic surgery at the Department of Plastic and Aesthetic Surgery (University Hospital Olomouc). The use of skin tissue was in accordance with the Ethics Committee of the University Hospital and Faculty of Medicine and Dentistry, Palacky University, Olomouc and all patients signed written informed consent. Fibroblasts were used between the 2nd and 4th passage. […]
(§2) Test compounds included 6-(tetrahydrofuran-2-ylmethylamino)-9-(tetrahydrofuran-2-yl)purine and positive control (rosmarinic acid). […] Intensity of UVA radiation was evaluated before each irradiation by UVA-meter. […] After 1 hour (37° C., 5% CO2) cell damage was evaluated by analysis of reactive oxygen species (ROS) production. In parallel, intracellular levels of glutathion (GSH) were measured 4 hours (37° C., 5% CO2) after UVA application.
GSH levels in NHDF were evaluated by reaction with 5,5′-Dithiobis(2-nitrobenzoic acid) (DTNB). […] Absorbance was measured at 412 nm. Protein content was analyzed spectrophotometrically by Lowry's method at 680 nm.
Activity of test compounds (not irradiated) in analyzed parameters were evaluated by comparison of experimental data according to the following equation: […]

ROS production = assay: UVA-induced ROS production in NHDF (H2DCFDA); type: cell-based, human
Source text: as §1, §2
ROS production was evaluated by 2,7-Dichlorodihydrofluorescein diacetate (H2DCFDA). […] Samples were applied on 96-well plate and fluorescence was measured (488/525 nm) (INFINITE M200, Tecan, Switzerland) after centrifugation (10 000 rpm, 4° C., 10 min). Protein content was analyzed spectrophotometrically by bicinchoninic acid at 562 nm (INFINITE M200, Tecan, Switzerland). […]

[1] = tested on: Normal Human Epidermal Keratinocytes (NHEK); assay: In vitro phototoxicity test (neutral red) on NHEK; type: cell-based
Source text: Normal Human Epidermal Keratinocytes (NHEK) were used as an in vitro model. Cells were isolated from tissue specimens obtained from healthy patients undergoing plastic surgery at the Department of Plastic and Aesthetic Surgery (University Hospital Olomouc). The use of skin tissue was in accordance with the Ethics Committee of the University Hospital and Faculty of Medicine and Dentistry, Palacky University, Olomouc and all patients signed written informed consent. NHEK were used between the 3rd and 4th passage. […] Intensity of UVA radiation was evaluated before each irradiation by UVA-meter. […]
After UVA exposure PBS with glucose was discarded and serum free medium was applied. After 24 hours (37° C., 5% CO2) cell damage was evaluated by neutral red (NR) incorporation into viable cells. […] After 5 minutes of intensive shaking absorbance was measured at 540 nm. […] Phototoxic effect was evaluated as % of viability of control cells that was calculated from experimental data (absorbance) according to the following equation: […]
AS . . . absorbance of sample (cells pre-incubated with test compound in serum free medium and irradiated)
AC . . . absorbance of control (cells pre-incubated with DMSO in serum free medium and irradiated)
AB . . . absorbance of background (extraction solution)

[2] = non-irradiated NHDF, 2.5-20 μmol/l

SMILES	protection against GSH depletion in comparison with rosmarinic acid (in words) (GSH depletion; UVA, NHDF)	effect on GSH level in non-irradiated cells (in words) (GSH depletion; [2])	protection against production of ROS in comparison with rosmarinic acid (in words) (ROS production; UVA, NHDF)	effect on ROS production in non-irradiated cells (in words) (ROS production; [2])	viability of NHEK cells ([1]; UVA+, 0.6 μmol/l)	viability of NHEK cells ([1]; UVA−, 12.5 μmol/l)
c1nc(NCC2CCCO2)c2ncn(C3CCCO3)c2n1 (stereo not drawn) [Compound 1, 6-(tetrahydrofuran-2-ylmethylamino)-9-(tetrahydrofuran-2-yl)purine]	less effective	did not showed negative effect	more effective	did not showed negative effect	–	–
CN(C)CCCN1c2ccccc2Sc2ccc(Cl)cc21 [chlorpromazine, reference compound]	–	–	–	–	below 80 % of control	below 50%
